In US11311576B2, “Methods of use for CAR T cells” (Seattle Children's Hospital, priority 2018, dated 2022) one finds CRS grade and Kd data, which are given here for one compound.

Molecules are shown by their SMILES.

In one series the test system is HOS-FRα tumor. The experiment in a line: CRS toxicity and sodium fluorescein rescue in HOS-FRα tumor-bearing mice. The class given is in vivo. To be noted: ~2.5 million CD8 and ~33 million CD4 E2 CAR-T cells; days 4 and 11, after EC17 500 and 100 nmol/kg on days 3 and 10. Here is the method:
All animal care and use were performed according to NIH guidelines and in compliance with protocols approved by the Purdue University Animal Use and Care Committee. Female 4 to 5-week-old NOD/SCID gamma (NSG™) mice (stock number: 005557) were purchased from The Jackson Laboratory (Bar Harbor, Me.). Unless specifically indicated, all animals were maintained on a FA-deficient diet (TestDiet, St. Louis, Mo.) upon arrival and throughout the study. To establish subcutaneous xenografts, MDA-MB-231 and HOS-FRα were implanted in the right flank region at 2.5×10^6 and 1×10^6 cells per animal, respectively. For intravenous xenografts, THP1-FRb cells were inoculated at 5×10^6 cells per animal. Subcutaneous tumors were measured 2-3 times per week with a caliper and calculated using the ellipsoidal formula […]. […] All animal doses (CAR-T cells, EC17, sodium fluorescein) were given intravenously.
Depending on the CAR-T cell dose and how EC17 is administered, tumor-bearing mice receiving FITC-specific CAR-T cells can experience severe CRS and varying degrees of body weight loss. […] On the days immediately following each EC17 dose, animals were scored and rescue agents such as sodium fluorescein, folic acid and leucovorin were used to mitigate CRS toxicity. […]

Another series addresses T1, FRβ (CHO-b) (Homo sapiens, UniProt P14207).
T1 construct: expressed in transfected cells; host or cells: CHO (Chinese hamster ovary) cells
The experiment in a line: 3H-EC17 cell-based radioligand binding assay, CHO-β cells. To be noted: 2 h at 37° C. How it is done: (§1) The bispecific affinities of EC17 CAM were assessed using ^3H-EC17 in cell-based radioligand binding assays. For binding to FR+ targets, KB and CHO-β cells were pre-seeded overnight in 24-well tissue culture plates and incubated with 0.1, 0.5, 1, 5, 10, 20, and 40 nM of ^3H-EC17 in FFRPMI for 2 h at 37° C. Afterwards, the cells were rinsed with phosphate-buffered saline (PBS, pH 7.4) and lysed with 1% sodium dodecylsulfate. The whole cell lysates were quantitated for the level of radioactivity and cellular protein content by standard Pierce BCA protein assay. The number of ^3H-EC17 molecules bound per cell was calculated to determine the dissociation constants (Kd) for FRα (KB) and FRβ (CHO-b) respectively (FIG. 56A, FIG. 56B).

The target of another series is T2, FRα (KB) (Homo sapiens, UniProt P15328).
T2 construct: endogenous in cells; host or cells: KB cells (human cervical carcinoma with HeLa markers)
The experiment in a line: 3H-EC17 cell-based radioligand binding assay, KB cells. Particulars: 2 h at 37° C. Here is the method: as §1

T1 sequence (P14207 17-230): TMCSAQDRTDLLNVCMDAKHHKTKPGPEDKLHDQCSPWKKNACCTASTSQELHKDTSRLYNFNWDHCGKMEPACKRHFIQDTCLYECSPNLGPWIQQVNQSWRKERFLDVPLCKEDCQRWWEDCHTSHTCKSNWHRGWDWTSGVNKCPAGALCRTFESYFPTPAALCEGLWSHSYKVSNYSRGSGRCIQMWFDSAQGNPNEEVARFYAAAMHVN
T2 sequence (P15328 25-234): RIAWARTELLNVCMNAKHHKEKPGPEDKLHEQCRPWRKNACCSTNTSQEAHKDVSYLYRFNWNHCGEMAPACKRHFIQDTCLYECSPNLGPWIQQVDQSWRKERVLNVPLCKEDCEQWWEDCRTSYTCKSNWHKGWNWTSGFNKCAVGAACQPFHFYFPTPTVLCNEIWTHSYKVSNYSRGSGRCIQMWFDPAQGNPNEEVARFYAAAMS

`NC1=NC2N=CC(CNc3ccc(C(=O)N[C@@H](CCC(=O)NCCNC(=S)Nc4ccc(-c5c6ccc(=O)cc-6oc6cc(O)ccc56)c(C(=O)O)c4)C(=O)O)cc3)=NC2C(=O)N1` (stereo partly drawn) [EC17, FA-(g)-ethylenediamine-FITC]: the CRS grade in the series on HOS-FRα tumor is reported as 1-2. Also, the dissociation constant Kd (as a rule, the equilibrium constant for the complex coming apart) at FRβ (CHO-b) was 0.8 nM; at FRα (KB), 1.7 nM.
